In brackets after ≈: the same amount, converted by molar mass. Read-outs that look alike come from different tables or passages of the source.
How the values were obtained:
KPC-2 [1] = molecular target: T1, KPC-2 (Klebsiella pneumoniae, UniProt Q9F663); experiment: IC50 and Ki on purified KPC-2 (nitrocefin hydrolysis); assay type: biochemical; parameters: inferred from Ni-NTA purification and the pQE-2 vector) (N); made in house; host or cells: E. coli BL21 (DE3); details: for IC50: IC50, 1 nM purified KPC-2, 5 minutes pre-incubation, 30°C, pH 7.0, nitrocefin substrate (so in the source)
Description: The 50% inhibitory concentration (IC50) was defined as the concentration of the inhibitor that inhibited hydrolytic activity of the enzyme by 50%.
The inhibition constant, Ki, was calculated from the IC50 value by applying the Cheng-Prusoff correction

[2] = test system: E. coli BL21 transformed with recombinant bla KPC-2 (pQE2-KPC-2); experiment: microbe, parasite or virus in culture; assay type: cell-based, Escherichia coli; details: for MIC of the carbapenem in combination with screened inhibitors (ZINC01807204 and ZINC02318494) / MIC: BL21 (pQE2-KPC-2); for MIC of the carbapenem in combination with screened inhibitors (ZINC01807204 and ZINC02318494) / reduction in MIC of the carbapenem in combination with screened compounds (ZINC01807204 and ZINC02318494): inhibitors 4 µg/ml; for MIC: inhibitors at fixed concentration of 4 µg/ml; for reduction in MIC of the carbapenem in combination with screened compounds (ZINC01807204 and ZINC02318494): KPC-2 expressing BL21 cells
Description: A carbapenem resistant clinical strain of K. pneumoniae (NP6), previously characterised in our lab was procured from Jawaharlal Nehru Medical College (JNMC), Aligarh. […] Escherichia coli (DH5α) and E. coli BL21 (DE3) were used for cloning and protein expression experiments respectively. Minimum inhibitory concentration (MIC) and Confocal Laser Scanning Microscopy (CLSM) experiments were conducted on E.coli (BL21) cells expressing recombinant KPC-2 β-lactamase.
(§1) The Minimum Inhibitory Concentrations (MIC) of recombinant BL21(DE3) cells harboring bla KPC-2 gene were determined by micro dilution method for different carbapenems alone and in combination with inhibitors (Clavulanic acid, Sulbactam, Tazobactam, ZINC01807204 and ZINC02318494) against BL21 control cells (cells with null vector). The recombinant E. coli cells were induced with IPTG prior to performing experiments. The antimicrobial agents, imipenem, meropenem, ertapenem, clavulanic acid, sulbactam and tazobactam were obtained from Sigma Aldrich (USA) and compounds ZINC01807204 and ZINC02318494 were procured from Vitas M (Netherlands). The inhibitors were taken at a fixed concentration of 4 µg/ml.

[3] = test system: E. coli BL21 (Null plasmid); experiment: microbe, parasite or virus in culture; assay type: cell-based; details: Escherichia coli, inhibitors at fixed concentration of 4 µg/ml
Description: as §1

[4] = test system: Klebsiella pneumoniae NP6 (clinical strain, KPC-2); experiment: microbe, parasite or virus in culture; assay type: cell-based
[5] = test system: Klebsiella pneumoniae MTCC 432; experiment: MIC, susceptible MTCC strain; assay type: cell-based
[6] = test system: E. coli BL21 transformants harbouring bla KPC-2; experiment: CLSM Live/Dead cell staining (PI/SYTO 9); assay type: cell-based, Escherichia coli; details: 4 hours
Description: The control was taken without any drug. The media was inoculated and incubated at 37^οC for 4 hours. The media was removed and dishes were gently washed with MOPS (pH 7.0) to wash off extra media. Cells were then stained with propidium iodide (PI) and SYTO 9 (1∶1) for one hour. The fluorescence emission was observed using confocal scanning laser microscope FluoView FV1000 (Olympus, Tokyo, Japan). The optimal excitation wavelengths were […] and the optimal emission wavelengths were 500 and 610 nm, respectively. The images were obtained from atleast three randomly picked positions. The images of the control and in presence of known as well as novel inhibitors were averaged and compared.

[7] = Solubility observed in the inhibition assay; assay type: physicochemical; details: at higher concentrations; reason IC50 and Ki could not be determined
KPC-2 [8] = molecular target: T1, KPC-2; details: nitrocefin as reporter substrate of KPC-2
[9] = MTCC432, MTCC 432, inhibitors at fixed concentration of 4µg/ml, read-out: MIC
[10] = sub-MIC meropenem in combination with the inhibitor (4 µg/ml)

T1 sequence (Q9F663 25-293 limits assumed): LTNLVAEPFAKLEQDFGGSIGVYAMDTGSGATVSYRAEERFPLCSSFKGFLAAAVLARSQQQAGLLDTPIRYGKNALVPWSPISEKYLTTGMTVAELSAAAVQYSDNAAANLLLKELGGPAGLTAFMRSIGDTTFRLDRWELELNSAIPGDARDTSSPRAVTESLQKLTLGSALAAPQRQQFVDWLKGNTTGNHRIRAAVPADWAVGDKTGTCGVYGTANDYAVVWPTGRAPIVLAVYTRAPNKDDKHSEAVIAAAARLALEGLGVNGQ

Compound	Ki (KPC-2 [1])	IC50 (KPC-2 [1])	MIC of the carbapenem in combination with screened inhibitors (ZINC01807204 and ZINC02318494) [2]	MIC [2]	MIC ([2]; Escherichia coli)	reduction in MIC of the carbapenem in combination with screened compounds (ZINC01807204 and ZINC02318494) [2]	MIC [3]	MIC [4]	other results
O=C(O)[C@H]1/C(=C/CO)O[C@@H]2CC(=O)N21 [Clavulanic acid]	30 µM	137 µM	–	–	–	–	–	–	–
C[C@@H](O)[C@H]1C(=O)N2C(C(=O)O)=C(S[C@@H]3CN[C@H](C(=O)Nc4cccc(C(=O)O)c4)C3)[C@H](C)[C@H]12 [Ertapenem, ertapenem]	–	–	16 µg/mL	≥128 µg/mL	128 µg/mL	8 fold	0.25 µg/mL	≥ 256 µg/mL	MIC [5, 9]: 0.0625 µg/mL (≈ 0.131 µM)
C[C@@H](O)[C@H]1C(=O)N2C(C(=O)O)=C(SCCN=CN)C[C@H]12 [Imipenem, imipenem]	–	–	16 µg/mL	≥64 µg/mL	64 µg/mL	four fold	0.25 µg/mL	≥ 256 µg/mL	MIC [5, 9]: 0.0625 µg/mL (≈ 0.209 µM)
C[C@@H](O)[C@H]1C(=O)N2C(C(=O)O)=C(S[C@@H]3CN[C@H](C(=O)N(C)C)C3)[C@H](C)[C@H]12 [Meropenem, meropenem]	–	–	8 µg/mL	≥64 µg/mL	64 µg/mL	8 fold and eight fold	0.125 µg/mL	≥ 256 µg/mL	cells green with normal cell membranes ([6]; sub-MIC concentration of meropenem alone): 60–70%; MIC ([5]; MTCC432): 0.125 µg/mL (≈ 0.326 µM)
CC1(C)[C@H](C(=O)O)N2C(=O)C[C@H]2S1(=O)=O [Sulbactam]	23.2 µM	106 µM	–	–	–	–	–	–	–
C[C@]1(Cn2ccnn2)[C@H](C(=O)O)N2C(=O)C[C@H]2S1(=O)=O [Tazobactam]	21.6 µM	98.8 µM	–	–	–	–	–	–	cells green with normal cell membranes [6, 10]: 60–70%
CC(=O)Nc1ccc(S(=O)(=O)Nc2ccccc2NS(=O)(=O)c2ccc(NC(C)=O)cc2)cc1 [ZINC01807204]	43.8 µM	200 µM	–	–	–	–	–	–	cells binding PI and Syto 9 (yellowish orange, affected) [6, 10]: 90–95%
CC(C)[C@H](NS(=O)(=O)c1ccc2c(c1)Cc1cc(S(=O)(=O)N[C@H](C(=O)O)C(C)C)ccc1-2)C(=O)O [ZINC02318494]	–	–	–	–	–	–	–	–	cells binding PI and Syto 9 (yellowish orange, affected) [6, 10]: 90–95%; solubility [7]: poor solubility at higher concentrations
O=C(Cc1cccs1)N[C@@H]1C(=O)N2C(C(=O)O)=C(/C=C/c3ccc([N+](=O)[O-])cc3[N+](=O)[O-])CS[C@H]12 [nitrocefin]	–	–	–	–	–	–	–	–	Km (KPC-2 [8]): 28 ± 6 µM

— article PMC4180753, “Evaluation of Inhibitory Action of Novel Non β-Lactam Inhibitor against Klebsiella pneumoniae Carbapenemase (KPC-2)” (PLoS ONE, 2014)
